Results taken from PMC12310023 (PLOS Neglected Tropical Diseases, 2025).

Columns and labels:
[1] = Liver microsome stability; conditions: mouse, pooled liver microsomes
[2] = test system: NLuc-expressing C. parvum; test: NLuc C. parvum IFNγ-KO mouse infection model, oocyst shedding; assay type: in vivo
Cav1.2 (L-type) = Cav1.2 (L-type) (Homo sapiens, UniProt Q13936); test: Bioprofiling panel functional assay; assay type: cell-based; conditions: 6 pt dilutions starting at 10 μM; read-out: IC50, antagonist readout
CYP1A2 = target: T1, CYP1A2 (Homo sapiens, UniProt P05177); test: CYP reaction phenotyping, recombinant supersomes
T1 sequence (P05177 1-516): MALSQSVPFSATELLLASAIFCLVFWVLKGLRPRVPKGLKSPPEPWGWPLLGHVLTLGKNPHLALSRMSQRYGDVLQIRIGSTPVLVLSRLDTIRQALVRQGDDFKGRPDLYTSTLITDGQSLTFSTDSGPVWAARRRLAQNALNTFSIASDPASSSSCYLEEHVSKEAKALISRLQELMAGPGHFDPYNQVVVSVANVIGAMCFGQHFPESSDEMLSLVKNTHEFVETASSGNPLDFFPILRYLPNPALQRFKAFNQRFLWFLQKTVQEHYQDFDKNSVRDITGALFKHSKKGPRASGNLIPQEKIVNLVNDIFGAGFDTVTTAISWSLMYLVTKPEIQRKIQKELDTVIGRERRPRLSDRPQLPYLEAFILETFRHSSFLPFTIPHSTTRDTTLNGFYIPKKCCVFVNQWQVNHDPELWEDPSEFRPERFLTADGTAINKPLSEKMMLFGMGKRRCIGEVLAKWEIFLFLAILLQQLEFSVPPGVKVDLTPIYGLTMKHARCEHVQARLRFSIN

AT2 = target: T2, AT2 (Homo sapiens, UniProt P50052); test: Cerep binding assay
T2 construct: Cerep (Eurofins, France)

Hepatocyte stability [3] = conditions: dog
[4] = Liver microsome stability; conditions: human, pooled liver microsomes
[5] = Plasma protein binding, equilibrium dialysis; conditions: mouse
5-HT2B = target: T3, 5-HT2B (Homo sapiens, UniProt P41595); test: Cerep cellular and nuclear receptor functional assay; assay type: cell-based
T3 construct: Cerep (Eurofins, France)

Hepatocyte stability [6] = conditions: rat
CYP3A12 = test: CYP Induction Assay in dog hepatocytes; conditions: 30 and 100 μM, 48 h
[7] = Balb/c, mouse, plasma, iv, 1 mg/kg
[8] = Balb/c, mouse, plasma, po, 30 mg/kg
[9] = liver microsomes and primary hepatocytes

T2 sequence (P50052 whole entry): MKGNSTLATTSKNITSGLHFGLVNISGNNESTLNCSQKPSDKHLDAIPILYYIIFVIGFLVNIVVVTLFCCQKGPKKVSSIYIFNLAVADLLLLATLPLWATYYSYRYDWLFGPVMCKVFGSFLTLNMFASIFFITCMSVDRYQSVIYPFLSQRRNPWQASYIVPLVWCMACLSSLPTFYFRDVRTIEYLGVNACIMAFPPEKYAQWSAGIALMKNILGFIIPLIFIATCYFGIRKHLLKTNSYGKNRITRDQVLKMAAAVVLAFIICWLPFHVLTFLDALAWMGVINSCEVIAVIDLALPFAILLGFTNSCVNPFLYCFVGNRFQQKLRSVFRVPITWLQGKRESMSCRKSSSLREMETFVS
T3 sequence (P41595 whole entry): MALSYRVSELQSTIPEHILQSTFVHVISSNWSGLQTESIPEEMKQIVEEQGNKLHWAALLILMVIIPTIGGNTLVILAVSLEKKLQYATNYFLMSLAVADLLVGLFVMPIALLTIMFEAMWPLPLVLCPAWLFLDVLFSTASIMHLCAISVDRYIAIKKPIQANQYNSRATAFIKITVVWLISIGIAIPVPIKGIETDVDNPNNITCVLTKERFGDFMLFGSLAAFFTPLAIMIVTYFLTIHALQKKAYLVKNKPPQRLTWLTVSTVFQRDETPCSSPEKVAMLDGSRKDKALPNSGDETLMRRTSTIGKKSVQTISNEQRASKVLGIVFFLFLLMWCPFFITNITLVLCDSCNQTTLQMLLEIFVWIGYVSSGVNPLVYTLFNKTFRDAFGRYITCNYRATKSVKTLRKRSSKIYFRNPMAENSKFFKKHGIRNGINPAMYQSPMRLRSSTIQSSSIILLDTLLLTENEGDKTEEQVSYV
Sequence of Cav1.2 (L-type) (Q13936 whole entry): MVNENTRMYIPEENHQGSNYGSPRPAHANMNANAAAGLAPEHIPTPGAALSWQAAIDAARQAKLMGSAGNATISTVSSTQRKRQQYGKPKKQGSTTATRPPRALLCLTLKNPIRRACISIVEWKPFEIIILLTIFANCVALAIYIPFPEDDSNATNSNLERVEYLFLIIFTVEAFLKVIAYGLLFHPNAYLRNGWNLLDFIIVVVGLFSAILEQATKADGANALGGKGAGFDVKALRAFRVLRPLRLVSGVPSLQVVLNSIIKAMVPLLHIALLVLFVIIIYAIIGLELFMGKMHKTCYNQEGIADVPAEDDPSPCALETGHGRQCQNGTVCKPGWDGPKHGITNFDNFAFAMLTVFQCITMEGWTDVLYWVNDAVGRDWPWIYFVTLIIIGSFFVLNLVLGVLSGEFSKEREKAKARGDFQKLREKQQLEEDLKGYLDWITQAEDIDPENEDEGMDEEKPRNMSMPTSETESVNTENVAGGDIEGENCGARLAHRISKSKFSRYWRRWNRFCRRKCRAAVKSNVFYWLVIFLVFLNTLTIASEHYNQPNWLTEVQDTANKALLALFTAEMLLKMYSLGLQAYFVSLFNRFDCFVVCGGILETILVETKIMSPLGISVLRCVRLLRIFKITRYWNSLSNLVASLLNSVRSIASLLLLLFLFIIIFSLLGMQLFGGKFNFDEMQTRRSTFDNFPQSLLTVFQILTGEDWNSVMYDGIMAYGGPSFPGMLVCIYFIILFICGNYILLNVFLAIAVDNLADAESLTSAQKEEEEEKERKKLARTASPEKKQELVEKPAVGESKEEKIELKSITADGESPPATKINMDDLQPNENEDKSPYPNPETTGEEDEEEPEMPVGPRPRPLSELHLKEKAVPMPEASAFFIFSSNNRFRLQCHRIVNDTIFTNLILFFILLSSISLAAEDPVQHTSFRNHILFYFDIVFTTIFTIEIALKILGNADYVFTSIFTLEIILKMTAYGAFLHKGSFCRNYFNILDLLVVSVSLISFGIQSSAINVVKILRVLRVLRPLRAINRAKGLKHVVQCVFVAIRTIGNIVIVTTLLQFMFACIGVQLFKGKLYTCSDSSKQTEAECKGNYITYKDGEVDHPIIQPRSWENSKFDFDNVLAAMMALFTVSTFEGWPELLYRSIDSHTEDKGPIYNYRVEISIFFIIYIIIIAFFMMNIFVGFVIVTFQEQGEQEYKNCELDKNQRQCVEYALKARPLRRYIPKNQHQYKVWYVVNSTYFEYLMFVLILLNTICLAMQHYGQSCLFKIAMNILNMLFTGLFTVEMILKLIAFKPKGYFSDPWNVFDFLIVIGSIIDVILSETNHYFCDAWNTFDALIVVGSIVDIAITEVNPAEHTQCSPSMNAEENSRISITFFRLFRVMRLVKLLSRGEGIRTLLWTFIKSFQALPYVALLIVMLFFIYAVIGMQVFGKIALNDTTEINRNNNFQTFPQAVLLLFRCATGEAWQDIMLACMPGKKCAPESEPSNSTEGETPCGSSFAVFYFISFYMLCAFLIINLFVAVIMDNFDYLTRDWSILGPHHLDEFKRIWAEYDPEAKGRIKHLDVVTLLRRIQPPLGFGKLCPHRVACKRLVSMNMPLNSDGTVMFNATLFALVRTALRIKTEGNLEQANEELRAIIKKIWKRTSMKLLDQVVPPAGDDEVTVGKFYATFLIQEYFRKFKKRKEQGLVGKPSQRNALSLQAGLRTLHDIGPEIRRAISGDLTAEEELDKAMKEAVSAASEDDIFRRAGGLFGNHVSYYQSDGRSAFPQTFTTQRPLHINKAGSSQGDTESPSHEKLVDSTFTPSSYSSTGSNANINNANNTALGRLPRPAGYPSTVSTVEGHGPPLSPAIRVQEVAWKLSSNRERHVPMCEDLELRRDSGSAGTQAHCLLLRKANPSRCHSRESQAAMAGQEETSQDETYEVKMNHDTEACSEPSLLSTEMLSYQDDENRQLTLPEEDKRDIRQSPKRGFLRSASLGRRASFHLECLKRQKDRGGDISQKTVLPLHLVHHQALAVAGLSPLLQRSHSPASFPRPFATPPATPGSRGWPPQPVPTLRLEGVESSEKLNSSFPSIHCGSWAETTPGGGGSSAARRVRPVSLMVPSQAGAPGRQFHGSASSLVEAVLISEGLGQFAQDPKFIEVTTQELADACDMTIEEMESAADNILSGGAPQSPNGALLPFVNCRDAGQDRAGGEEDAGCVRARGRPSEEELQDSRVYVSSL
Sequence of Cav1.2 (L-type) (Q08289 whole entry partner): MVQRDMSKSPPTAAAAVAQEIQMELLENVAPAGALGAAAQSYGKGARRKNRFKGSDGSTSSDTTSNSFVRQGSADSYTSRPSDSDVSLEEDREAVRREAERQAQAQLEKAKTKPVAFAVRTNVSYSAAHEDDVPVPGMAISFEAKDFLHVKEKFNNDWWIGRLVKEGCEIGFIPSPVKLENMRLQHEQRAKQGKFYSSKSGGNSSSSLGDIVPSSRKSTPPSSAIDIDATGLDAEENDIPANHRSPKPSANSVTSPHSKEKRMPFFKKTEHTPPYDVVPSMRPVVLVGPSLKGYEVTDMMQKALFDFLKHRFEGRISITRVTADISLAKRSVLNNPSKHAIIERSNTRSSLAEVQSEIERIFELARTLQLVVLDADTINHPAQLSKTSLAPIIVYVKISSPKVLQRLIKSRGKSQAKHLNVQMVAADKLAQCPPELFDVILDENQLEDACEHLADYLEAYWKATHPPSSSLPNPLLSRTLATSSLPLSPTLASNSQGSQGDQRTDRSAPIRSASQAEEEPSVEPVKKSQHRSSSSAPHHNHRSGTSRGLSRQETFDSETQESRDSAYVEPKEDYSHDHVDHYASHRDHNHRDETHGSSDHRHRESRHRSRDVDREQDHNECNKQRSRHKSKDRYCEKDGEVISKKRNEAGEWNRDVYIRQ

Work on `CC1(C)Cn2nc(-c3ccc4cc(OC5CC5)ccc4c3)c(C(N)=O)c2NC1O` (centres unmarked) [M2] yielded a CLint scaled [1] of 75 mL/min/kg, a half-life [1] of 1.97 h and a microsomal CLint [1] of 23.6 µL/min/mg. The “day p.i. oocyst shedding reached LoD” value ([2]; M2 8 mg/kg x 3 days PO) was 17 days, the “day p.i. oocyst shedding below LoD” value ([2]; M2 15 mg/kg x 3 days PO) was at most 10 days and the “day p.i. oocyst shedding below LoD” value ([2]; M2 30 mg/kg x 3 days PO) was at most 10 days. For the same molecule, the IC50 (Cav1.2 (L-type)) was 8.1 µM, the “% contribution” value (CYP1A2) was 47.0% and the CLint (CYP1A2) was 0.115 µL/min/pmol. For the same molecule, the C0 (Mouse PK, Balb/c; [7]) was 4.2 ± 1.3 µM, the Vd (Mouse PK, Balb/c; [7]) was 0.9 L/kg and the clearance (Mouse PK, Balb/c; [7]) was 6.2 mL/min/kg. The half-life (Mouse PK, Balb/c; [7]) was 1.77 h, the Cmax (Mouse PK, Balb/c; [8]) was 13.1 ± 1.3 µM and the Tmax (Mouse PK, Balb/c; [8]) was 1.5 h. The bioavailability (Mouse PK, Balb/c; [8]) was 43%, the half-life (Mouse PK, Balb/c; [8]) was 3.07 h and the AUC0-inf (Mouse PK, Balb/c; M2 IV 1 mg/kg) was 400 ± 42 µmol·min/L. For the same molecule, the AUC0-inf (Mouse PK, Balb/c; M2 PO 30 mg/kg) was 5185 ± 1500 µmol·min/L, the “M2 AUC0-inf” value (Mouse PK, Balb/c; after BKI-1708 IV 3 mg/kg) was 988 ± 162 µmol·min/L and the “M2 AUC0-inf” value (Mouse PK, Balb/c; after BKI-1708 PO 15 mg/kg) was 6445 ± 654 µmol·min/L. The IC50 (AT2) was 4.6 µM, the inhibition at 10 µM (AT2; 10 μM, agonist radioligand, mean, read-out: % inhibition of control specific binding) was 50.7% and the “LM:hepatocyte CLint_scaled ratio” value (Hepatocyte stability [3]; [9]) was under 2.5. The CLint scaled (Hepatocyte stability [3]; primary hepatocytes) was 13.3 mL/min/kg, the half-life (Hepatocyte stability [3]; primary hepatocytes) was 6.85 h and the hepatocyte CLint (Hepatocyte stability [3]; primary hepatocytes) was 3.4 µL/min/1e6 cells. For the same molecule, the CLint scaled [4] was under 25 mL/min/kg, the half-life [4] was over 2 h and the microsomal CLint [4] was under 23.1 µL/min/mg. The fraction unbound [5] was 0.04, the agonist effect (5-HT2B) was “no effect up to 100 μM” and the IC50 (5-HT2B; read-out: IC50, antagonist effect) was 20 µM. For the same molecule, the “LM:hepatocyte CLint_scaled ratio” value (Hepatocyte stability [6]; [9]) was under 0.7, the CLint scaled (Hepatocyte stability [6]; primary hepatocytes) was 63.3 mL/min/kg and the half-life (Hepatocyte stability [6]; primary hepatocytes) was 1.75 h. The hepatocyte CLint (Hepatocyte stability [6]; primary hepatocytes) was 13.2 µL/min/1e6 cells and the “induction of CYP3A12” value (CYP3A12) was “not found to be inducers”.
